These results are taken from US11840531B2, “CDK8/19 inhibitors” (JOINT STOCK COMPANY “BIOCAD”, priority 2018, dated 2023).

Data set [1] can be described thus: Stability of the compounds in human blood plasma. The class given is in vitro ADME. The following applies: pooled human blood plasma, 10 μM, 4 hours at 37° C. The protocol: To assess the blood plasma stability of the compounds, we used pooled human blood plasma taken from ten healthy donors. The initial candidate solution (10 mM in DMSO) was diluted with pooled blood plasma to a concentration of 10 μm (test solution). The test solution was incubated in a dry block thermostat for 4 hours at 37° C. HPLC with Agilent 1200 liquid chromatography system (Agilent, USA) was employed to determine peak areas of the compounds in test samples, said peak areas corresponding to the initial test time (prior to incubation) and the final test time (after incubation in a dry block thermostat for 4 hours at 37° C.), proteins were preliminarily precipitated with acetonitrile. Chromatographic analysis was performed in a gradient elution regime with a flow rate of 1 mL/min Substance amount in % in a sample after thermostatting was determined.
The stability of the compounds was estimated. The compounds described herein show at least 90% chemical stability, i.e. they are chemically stable in human blood plasma (Table 2).

Data set [2] in a line: Enzyme stability in human liver microsomes (Phase I). Particulars: pH 7.4; 0.5 mg/mL pooled human liver microsomes, 10 μM compound, 37° C. The format is in vitro ADME. The protocol:
Measuring of enzyme stability of the present compounds enabled estimation of their stability towards the action of Phase I biotransformation enzymes.
The rate of enzymatic decomposition of a compound was detected by incubating the reaction mixture in a dry block heater at 37° C.; the reaction mixture contained 0.5 mg/mL of pooled human liver microsomes (XenoTech, USA, cat #H6010), 10 μM of a compound, 2 mM β-nicotinamide adenine dinucleotide (Carbosynth, UK, cat #NN10871) and 4 mM of magnesium chloride in 0.1M sodium phosphate buffer (pH=7.4). The reaction was quenched with acetonitrile (100 μL of acetonitrile/100 μL of the reaction mixture). After quenching, the samples were centrifuged at 10000 rpm for 10 minutes. Supernatant fluid was tested by chromatographic technique using Agilent1200 (Agilent, USA). Chromatographic analysis was performed in a gradient elution regime with a flow rate of 1 mL/min. A graph of the logarithm of substance's peak area as a function of time was made. The dependent factor of the line corresponded to the elimination rate constant K based on which the drug's half-lif½e T and degradation rate CLint were calculated:
Based on the data obtained, candidates' enzyme stability in human liver microsomes was determined.
For orientation: Liver microsomes are vesicles of endoplasmic reticulum, rich in cytochrome P450 enzymes.

Data set [3] in a line: Enzyme stability in human liver S9 fractions (Phase II). The format is in vitro ADME. Particulars: pH 7.4; 0.5 mg/mL pooled human liver S9 fractions, 10 μM compound, 37° C.; read-out: Enzyme stability Liver S9 fraction CLint. On the procedure:
Measuring of enzyme stability of the present compounds enabled estimation of their stability towards the action of Phase II biotransformation enzymes.
Enzyme degradation rate was measured by incubating the reaction mixture in a dry block thermostat at 37° C., said reaction mixture comprising 0.5 mg/mL of pooled human liver S9 fractions (XenoTech, USA, cat #H0610), 10 μM compound, 2 mM β-nicotinamide adenine dinucleotide (Carbosynth, UK, cat #NN10871) and 4 mM magnesium chloride in 0, 1 M sodium-phosphate buffer, pH=7, 4. The reaction was quenched with acetonitrile (100 μL of acetonitrile/100 μL of the reaction mixture). After quenching, the samples were centrifuged at 10000 rpm for 10 minutes. Supernatant fluid was tested by chromatographic technique using Agilent1200 (Agilent, USA). Chromatographic analysis was performed in a gradient elution regime with a flow rate of 1 mL/min A graph of the logarithm of substance's peak area as a function of time was made. The dependent factor of the line corresponded to the elimination rate constant K based on which the drug's half-life T½ and degradation rate CLint were calculated:
Based on the data obtained, candidates' enzyme stability in human liver S9 fractions was determined.

The target in another data set is CDK8/Cyclin C (Homo sapiens (Human), UniProt P49336). Description: LanthaScreen binding to recombinant CDK8/Cyclin C. Particulars: TR-FRET, Tracer 236 10 nM, CDK8/Cyclin C 5 nM. On the procedure: Capability of compounds of the present invention to bind to CDK8 protein was detected using LanthaScreen (ThermoFisher) assay. We detected FRET signal proportional to the amount of CDK8-bound fluorescently-labeled ligand (Tracer 236) that competes with inhibitor for ATP binding site. We carried out the measurements in a 15 μl reaction volume using a 384-well plate (Corning, #CLS4513). Enzyme CDK8/Cyclin C (ThermoFisher, #PR7261B) was mixed with antibodies Anti-His-tag-Biotin (ThermoFisher, #PV6090), Streptavidin-Eu (ThermoFisher, #PV6025), the resulting mixture was added to plate wells (5 MKπ/well). Final concentrations of substances were as follows: CDK8/Cyclin C—5 nM, Streptavidin-Eu—3 nM, Anti-His-tag-Biotin—3 nM. Staurosporine (S4400, Sigma) was used as a reference inhibitor, and 0.1% solution of dimethyl sulphoxide (DMSO) in reaction buffer was used as a blank, the reaction buffer comprised 250 mM HEPES (pH 7.5), 50 mM MgCl2, 5 mM EGTA, and 0.05% Brij-35.
The inhibitors and controls in question were added to corresponding wells (5 μl/well). The plate was incubated at room temperature for 20 minutes. After incubating, 5 μl/well of tracer solution Alexa Fluor-647 (Kinase Tracer 236, ThermoFisher, #PV5592)) was added to the wells. Final concentration of tracer was 10 nM. Reaction buffer, instead of tracer solution, was used as a negative control. The plate was incubated for 40 minutes at 25° C., TR-FRET signal was then measured according to the manufacturer's guidelines on SPARK20 plate reader (Tecan, Switzerland), and the value was converted to the amount of kinase-bound tracer. IC50 values were calculated using SparkControl Magellan 1.2 software (Tecan, Switzerland) approximating experimental points by four-parameter logistic model with the optimization by Levenberg-Marquardt (Table 5).
Background: TR-FRET usually uses a lanthanide donor and a delayed reading to cut background.

A further data set has as its system MV4-11 cells. The data set can be described thus: Antiproliferative activity, MV4-11 cells (AlamarBlue). The format is cell-based. Particulars: Homo sapiens, 120 h incubation, read-out: MV-4-11 IC50. On the procedure: (§1) Antiproliferative activity of CDK8 inhibitors according to the present invention was measured in a cell-based test on continuous cell cultures MV4-11 (biphenotypic myelomonocytic leukemia, ATCC® CRL-9591™), KG-1 (acute myeloid leukemia, ATCC® CCL-246™) using a vital stain AlamarBlue (ThermoFisher, #DAL1100). The cells were grown in RPMI-1640 (PanEco, #C330p) medium with addition of 10% FBS (Gibco, #16140-071); washed and resuspended in culture medium with 10% FBS (Gibco, #16140-071) in 96-well culture plates (Corning, #3599) with ≈10×10^3 cells in […] of medium per well. The compounds in question were dissolved in DMSO and diluted with a medium with 10% FBS (Gibco, #16140-071) to a final concentration ranging from 0 to 100 μM. […] of diluted compounds were then added to each well (final DMSO concentration was less than 1%) and incubated under 5% CO2 atmosphere at 37° C. for 120 h. After incubating, 15 μL/well of AlamarBlue (ThermoFisher, #DAL1100) reagent was added, contents of plates were mixed in an orbital shaker (Biosan, Latvia) and further incubated for 3-5 h at 37° C. under 5% CO2 atmosphere. Number of living cells was estimated using a microplate spectrophotometer (Tecan Infinite M200Pro, Switzerland) measuring fluorescent signal at the excitation wavelength (λEx) of 540 nm and emission wavelength (λEm) of 590 nm.
(§2) IC50 values were calculated using Magellan 7.2 software (Tecan, Switzerland) approximating experimental points by four-parameter logistic model with the optimization by Levenberg-Marquardt (Table 6).
In general terms: The colour change of resazurin is a common sign of viable cells or microbes.

For another data set, the system named is KG-1 cells. The data set can be described thus: Antiproliferative activity, KG-1 cells (AlamarBlue). The format is cell-based. The following applies: Homo sapiens, KG-1, 120 h, 120 h incubation. The protocol: as §1, §2
Data set [4] can be described thus: General cytotoxicity on HepG2 cells. The class given is cell-based. Particulars: human, 72 h incubation. On the procedure:
The CC50 values were determined in the test for General cytotoxicity On HepG2 cells (hepatocellular carcinoma, ATCC® HB-8065™). Cells per well were seeded in 96-well plates (Corning, #3599) at a concentration ≈20×10^3 cells in 100 μL of medium and incubated for 72 h with added compounds within the range of concentrations of 200 to 0.78 μM. Cell viability was assessed using the above method.

As a reminder, the IC50 is the concentration at which inhibition is half-maximal. A word on the CC50: it is the concentration at which the toxic effect on the cells reaches its halfway point. High values mean lower toxicity to the cells, low ones greater toxicity to the cells.

Chain of CDK8/Cyclin C (P49336 whole entry): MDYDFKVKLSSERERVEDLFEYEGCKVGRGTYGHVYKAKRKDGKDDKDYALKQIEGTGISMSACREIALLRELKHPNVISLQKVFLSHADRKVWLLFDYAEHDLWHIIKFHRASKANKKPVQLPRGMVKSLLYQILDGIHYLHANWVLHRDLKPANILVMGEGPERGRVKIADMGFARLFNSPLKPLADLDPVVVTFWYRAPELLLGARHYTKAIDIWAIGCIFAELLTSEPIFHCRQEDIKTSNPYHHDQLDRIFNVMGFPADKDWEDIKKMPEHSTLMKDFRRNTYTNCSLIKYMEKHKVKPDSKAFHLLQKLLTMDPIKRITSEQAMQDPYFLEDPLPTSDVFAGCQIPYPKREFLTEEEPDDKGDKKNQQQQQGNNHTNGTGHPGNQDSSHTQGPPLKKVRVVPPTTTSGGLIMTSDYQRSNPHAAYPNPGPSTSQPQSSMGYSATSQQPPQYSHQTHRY
Chain of CDK8/Cyclin C (P24863 whole entry partner): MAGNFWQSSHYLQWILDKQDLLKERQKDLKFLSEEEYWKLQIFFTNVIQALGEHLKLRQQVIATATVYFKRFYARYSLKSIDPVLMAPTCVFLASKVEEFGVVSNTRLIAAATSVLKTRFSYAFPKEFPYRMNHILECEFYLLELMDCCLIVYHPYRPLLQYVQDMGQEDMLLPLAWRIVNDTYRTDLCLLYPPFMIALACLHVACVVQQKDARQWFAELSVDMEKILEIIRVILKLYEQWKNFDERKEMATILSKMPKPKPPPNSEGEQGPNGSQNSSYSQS

For `CN(C)C(=O)Cn1cc(-c2ccc(-c3cnc(N)c4ncc(C(=O)NC5CC5)cc34)cc2)cn1` [Compound 3.46, 8-amino-N-cyclopropyl-5-(4-(1-(2-(dimethylamino)-2-oxoethyl)-1H-pyrazole-4-yl)phenyl)-1,7-naphthyridine-3-carboxamide], the “Chemical stability in human blood plasma 4 h, %” value (shortened to “Chemical stability … %”) in data set [1] came out at 96.5%. The figures for the microsomal CLint at 10 μM in data set [2] and in data set [3] were 2.6 µL/min/mg and 0.5 µL/min/mg, respectively. Also, the IC50 was 1.11 nM at CDK8/Cyclin C, 0.7 nM in the data set on MV4-11 cells and 1.1 nM with KG-1 cells. This compound also had a CC50 at 72 h in data set [4] of over 100000 nM.
For the compound `CN1CCN(C(=O)c2cnc3c(N)ncc(-c4ccc(-c5cnn(CC(=O)N(C)C)c5)cc4)c3c2)CC1` [Compound 3.49, 2-(4-(4-(8-amino-3-(4-methylpiperazine-1-carbonyl)-1,7-naphthyridine-5-yl)phenyl) -1H-pyrazole-1-yl)-N,N-dimethylacetamide], the “Chemical stability … %” value in data set [1] turned out to be 100.0%. Further, the microsomal CLint at 10 μM in data set [2] was 7 µL/min/mg; in data set [3], 1.4 µL/min/mg. Besides, the IC50 was 1.85 nM on CDK8/Cyclin C, 2.8 nM with MV4-11 cells and 12.9 nM in the data set with KG-1 cells. Besides, the CC50 at 72 h in data set [4] was over 100000 nM.
Consider `CN1CCN(C(=O)Cn2cc(-c3ccc(-c4cnc(N)c5ncc(C(=O)N6CCC6)cc45)cc3)cn2)CC1` [Compound 3.53, 2-(4-(4-(8-amino-3-(azetidine-1-carbonyl)-1,7-naphthyridine-5-yl)phenyl)-1H-pyrazole-1-yl)-1-(4-methylpiperazine-1-yl)ethan-1-one], for which the “Chemical stability … %” value in data set [1] is 100.0%. Moreover, the microsomal CLint at 10 μM in data set [2] was found to be 7.8 µL/min/mg; in data set [3], 7.1 µL/min/mg. For the same compound, the IC50 amounted to 1.01 nM at CDK8/Cyclin C, 1.3 nM in the data set with MV4-11 cells and 2.4 nM with KG-1 cells. The CC50 at 72 h in data set [4] is about 90000 nM.
Turning to `CN1CCN(C(=O)Cn2cc(-c3ccc(-c4cnc(N)c5ncc(C(=O)NC6CC6)cc45)cc3)cn2)CC1` [Compound 3.47, 8-amino-N-cyclopropyl-5-(4-(1-(2-(4-methylpiperazin-1-yl)-2-oxoethyl)-1H-pyrazole-4-yl)phenyl)-1,7-naphthyridine-3-carboxamide], the “Chemical stability … %” value in data set [1] is reported as 96.5%. In addition, the figures for the microsomal CLint at 10 μM in data set [2] and in data set [3] were 5.6 µL/min/mg and 1.5 µL/min/mg, respectively. In addition, the figures for the IC50 at CDK8/Cyclin C, in the data set on MV4-11 cells and in the data set on KG-1 cells were 1.1 nM, 1.1 nM and 3.3 nM, respectively. Further, the CC50 at 72 h in data set [4] is over 100000 nM.
